Key:
TAO3 = biological target: T1, TAO3 (Homo sapiens, UniProt Q9H2K8); test: Millipore kinase panel; assay type: biochemical; conditions: read-out: % Control
T1 construct: purchased Millipore KinaseProfiler (kinases); Cerep (receptors and ion channels)

KV channel = test: CEREP binding panel; conditions: 10 μM, antagonist radioligand
BRSK2 = biological target: T2, BRSK2 (Homo sapiens, UniProt Q8IWQ3); test: Millipore kinase panel; assay type: biochemical; conditions: read-out: % Control
T2 construct: purchased Millipore KinaseProfiler (kinases); Cerep (receptors and ion channels)

NK3 (h) = biological target: T3, NK3 (h) (Homo sapiens, UniProt P29371); test: CEREP binding panel; conditions: antagonist radioligand, read-out: % Inhibition of Control Specific Binding
T3 construct: purchased Millipore KinaseProfiler (kinases); Cerep (receptors and ion channels)

IKKALPHA = biological target: T4, IKKALPHA (Homo sapiens, UniProt O15111); test: Millipore kinase panel; assay type: biochemical; conditions: read-out: % Control
T4 construct: purchased Millipore KinaseProfiler (kinases); Cerep (receptors and ion channels)

ABL = biological target: T5, ABL (Homo sapiens, UniProt P00519); test: Millipore kinase panel; assay type: biochemical; conditions: read-out: % Control
T5 construct: purchased Millipore KinaseProfiler (kinases); Cerep (receptors and ion channels)

PAR-1BALPHA = biological target: T6, PAR-1BALPHA (Homo sapiens, UniProt Q7KZI7); test: Millipore kinase panel; assay type: biochemical; conditions: read-out: % Control
T6 construct: purchased Millipore KinaseProfiler (kinases); Cerep (receptors and ion channels)

SNK = biological target: T7, SNK (Homo sapiens, UniProt Q9NYY3); test: Millipore kinase panel; assay type: biochemical; conditions: read-out: % Control
T7 construct: purchased Millipore KinaseProfiler (kinases); Cerep (receptors and ion channels)

α1 (non-selective) = test: CEREP binding panel; conditions: 10 μM, antagonist radioligand
JAK2 = biological target: T8, JAK2 (Homo sapiens, UniProt O60674); test: Millipore kinase panel; assay type: biochemical; conditions: read-out: % Control
T8 construct: purchased Millipore KinaseProfiler (kinases); Cerep (receptors and ion channels)

5-HT3 (h) = biological target: T9, 5-HT3 (h) (Homo sapiens, UniProt P46098); test: CEREP binding panel; conditions: antagonist radioligand, read-out: % Inhibition of Control Specific Binding
T9 construct: purchased Millipore KinaseProfiler (kinases); Cerep (receptors and ion channels)

B2 (h) = biological target: T10, B2 (h) (Homo sapiens, UniProt P30411); test: CEREP binding panel; conditions: agonist radioligand, read-out: % Inhibition of Control Specific Binding
T10 construct: purchased Millipore KinaseProfiler (kinases); Cerep (receptors and ion channels)

EPHB3 = biological target: T11, EPHB3 (Homo sapiens, UniProt P54753); test: Millipore kinase panel; assay type: biochemical; conditions: read-out: % Control
T11 construct: purchased Millipore KinaseProfiler (kinases); Cerep (receptors and ion channels)

DAPK1 = biological target: T12, DAPK1 (Homo sapiens, UniProt P53355); test: Millipore kinase panel; assay type: biochemical; conditions: read-out: % Control
T12 construct: purchased Millipore KinaseProfiler (kinases); Cerep (receptors and ion channels)

Y1 (h) = biological target: T13, Y1 (h) (Homo sapiens, UniProt P25929); test: CEREP binding panel; conditions: agonist radioligand, read-out: % Inhibition of Control Specific Binding
T13 construct: purchased Millipore KinaseProfiler (kinases); Cerep (receptors and ion channels)

CDK7/CYCLINH/MAT1 = biological target: T14, CDK7/CYCLINH/MAT1 (Homo sapiens, UniProt P50613); test: Millipore kinase panel; assay type: biochemical; conditions: read-out: % Control
T14 construct: purchased Millipore KinaseProfiler (kinases); Cerep (receptors and ion channels)

GRK7 = biological target: T15, GRK7 (Homo sapiens, UniProt Q8WTQ7); test: Millipore kinase panel; assay type: biochemical; conditions: read-out: % Control
T15 construct: purchased Millipore KinaseProfiler (kinases); Cerep (receptors and ion channels)

ETA (h) = biological target: T16, ETA (h) (Homo sapiens, UniProt P25101); test: CEREP binding panel; conditions: agonist radioligand, read-out: % Inhibition of Control Specific Binding
T16 construct: purchased Millipore KinaseProfiler (kinases); Cerep (receptors and ion channels)

PKA = biological target: T17, PKA (Homo sapiens, UniProt P17612); test: Millipore kinase panel; assay type: biochemical; conditions: read-out: % Control
T17 construct: purchased Millipore KinaseProfiler (kinases); Cerep (receptors and ion channels)

ALK4 = biological target: T18, ALK4 (Homo sapiens, UniProt P36896); test: Millipore kinase panel; assay type: biochemical; conditions: read-out: % Control
T18 construct: purchased Millipore KinaseProfiler (kinases); Cerep (receptors and ion channels)

NLK = biological target: T19, NLK (Homo sapiens, UniProt Q9UBE8); test: Millipore kinase panel; assay type: biochemical; conditions: read-out: % Control
T19 construct: purchased Millipore KinaseProfiler (kinases); Cerep (receptors and ion channels)

CHK1 = biological target: T20, CHK1 (Homo sapiens, UniProt O14757); test: Millipore kinase panel; assay type: biochemical; conditions: read-out: % Control
T20 construct: purchased Millipore KinaseProfiler (kinases); Cerep (receptors and ion channels)

MUSK = biological target: T21, MUSK (Homo sapiens, UniProt O15146); test: Millipore kinase panel; assay type: biochemical; conditions: read-out: % Control
T21 construct: purchased Millipore KinaseProfiler (kinases); Cerep (receptors and ion channels)

GAL2 (h) = biological target: T22, GAL2 (h) (Homo sapiens, UniProt O43603); test: CEREP binding panel; conditions: agonist radioligand, read-out: % Inhibition of Control Specific Binding
T22 construct: purchased Millipore KinaseProfiler (kinases); Cerep (receptors and ion channels)

5-HT1B = biological target: T23, 5-HT1B (Rattus norvegicus, UniProt P28564); test: CEREP binding panel; conditions: antagonist radioligand, read-out: % Inhibition of Control Specific Binding
T23 construct: purchased Millipore KinaseProfiler (kinases); Cerep (receptors and ion channels)

EEF-2K = biological target: T24, EEF-2K (Homo sapiens, UniProt O00418); test: Millipore kinase panel; assay type: biochemical; conditions: read-out: % Control
T24 construct: purchased Millipore KinaseProfiler (kinases); Cerep (receptors and ion channels)

PIM-2 = biological target: T25, PIM-2 (Homo sapiens, UniProt Q9P1W9); test: Millipore kinase panel; assay type: biochemical; conditions: read-out: % Control
T25 construct: purchased Millipore KinaseProfiler (kinases); Cerep (receptors and ion channels)

SRPK1 = biological target: T26, SRPK1 (Homo sapiens, UniProt Q96SB4); test: Millipore kinase panel; assay type: biochemical; conditions: read-out: % Control
T26 construct: purchased Millipore KinaseProfiler (kinases); Cerep (receptors and ion channels)

HIPK2 = biological target: T27, HIPK2 (Homo sapiens, UniProt Q9H2X6); test: Millipore kinase panel; assay type: biochemical; conditions: read-out: % Control
T27 construct: purchased Millipore KinaseProfiler (kinases); Cerep (receptors and ion channels)

ULK2 = biological target: T28, ULK2 (Homo sapiens, UniProt Q8IYT8); test: Millipore kinase panel; assay type: biochemical; conditions: read-out: % Control
T28 construct: purchased Millipore KinaseProfiler (kinases); Cerep (receptors and ion channels)

SAPK4 = biological target: T29, SAPK4 (Homo sapiens, UniProt O15264); test: Millipore kinase panel; assay type: biochemical; conditions: read-out: % Control
T29 construct: purchased Millipore KinaseProfiler (kinases); Cerep (receptors and ion channels)

MST2 = biological target: T30, MST2 (Homo sapiens, UniProt Q13188); test: Millipore kinase panel; assay type: biochemical; conditions: read-out: % Control
T30 construct: purchased Millipore KinaseProfiler (kinases); Cerep (receptors and ion channels)

M2 (h) = biological target: T31, M2 (h) (Homo sapiens, UniProt P08172); test: CEREP binding panel; conditions: antagonist radioligand, read-out: % Inhibition of Control Specific Binding
T31 construct: purchased Millipore KinaseProfiler (kinases); Cerep (receptors and ion channels)

ZIPK = biological target: T32, ZIPK (Homo sapiens, UniProt O43293); test: Millipore kinase panel; assay type: biochemical; conditions: read-out: % Control
T32 construct: purchased Millipore KinaseProfiler (kinases); Cerep (receptors and ion channels)

IGF-1R, ACTIVATED = biological target: T33, IGF-1R, ACTIVATED (Homo sapiens, UniProt P08069); test: Millipore kinase panel; assay type: biochemical; conditions: read-out: % Control
T33 construct: purchased Millipore KinaseProfiler (kinases); Cerep (receptors and ion channels)

5-HT transporter (h) = biological target: T34, 5-HT transporter (h) (Homo sapiens, UniProt P31645); test: CEREP binding panel; conditions: antagonist radioligand, read-out: % Inhibition of Control Specific Binding
T34 construct: purchased Millipore KinaseProfiler (kinases); Cerep (receptors and ion channels)

PIM-1 = biological target: T35, PIM-1 (Homo sapiens, UniProt P11309); test: Millipore kinase panel; assay type: biochemical; conditions: read-out: % Control
T35 construct: purchased Millipore KinaseProfiler (kinases); Cerep (receptors and ion channels)

5-HT5a (h) = biological target: T36, 5-HT5a (h) (Homo sapiens, UniProt P47898); test: CEREP binding panel; conditions: agonist radioligand, read-out: % Inhibition of Control Specific Binding
T36 construct: purchased Millipore KinaseProfiler (kinases); Cerep (receptors and ion channels)

SKCa channel = test: CEREP binding panel; conditions: 10 μM, antagonist radioligand
CHK2 = biological target: T37, CHK2 (Homo sapiens, UniProt O96017); test: Millipore kinase panel; assay type: biochemical; conditions: read-out: % Control
T37 construct: purchased Millipore KinaseProfiler (kinases); Cerep (receptors and ion channels)

PRKAA1 = biological target: T38, PRKAA1 (Homo sapiens, UniProt Q13131); test: Millipore kinase panel; assay type: biochemical; conditions: read-out: % Control
T38 construct: purchased Millipore KinaseProfiler (kinases); Cerep (receptors and ion channels)

FGFR2 = biological target: T39, FGFR2 (Homo sapiens, UniProt P21802); test: Millipore kinase panel; assay type: biochemical; conditions: read-out: % Control
T39 construct: purchased Millipore KinaseProfiler (kinases); Cerep (receptors and ion channels)

DCAMKL2 = biological target: T40, DCAMKL2 (Homo sapiens, UniProt Q8N568); test: Millipore kinase panel; assay type: biochemical; conditions: read-out: % Control
T40 construct: purchased Millipore KinaseProfiler (kinases); Cerep (receptors and ion channels)

MRCKALPHA = biological target: T41, MRCKALPHA (Homo sapiens, UniProt Q5VT25); test: Millipore kinase panel; assay type: biochemical; conditions: read-out: % Control
T41 construct: purchased Millipore KinaseProfiler (kinases); Cerep (receptors and ion channels)

T21 sequence (O15146 24-869): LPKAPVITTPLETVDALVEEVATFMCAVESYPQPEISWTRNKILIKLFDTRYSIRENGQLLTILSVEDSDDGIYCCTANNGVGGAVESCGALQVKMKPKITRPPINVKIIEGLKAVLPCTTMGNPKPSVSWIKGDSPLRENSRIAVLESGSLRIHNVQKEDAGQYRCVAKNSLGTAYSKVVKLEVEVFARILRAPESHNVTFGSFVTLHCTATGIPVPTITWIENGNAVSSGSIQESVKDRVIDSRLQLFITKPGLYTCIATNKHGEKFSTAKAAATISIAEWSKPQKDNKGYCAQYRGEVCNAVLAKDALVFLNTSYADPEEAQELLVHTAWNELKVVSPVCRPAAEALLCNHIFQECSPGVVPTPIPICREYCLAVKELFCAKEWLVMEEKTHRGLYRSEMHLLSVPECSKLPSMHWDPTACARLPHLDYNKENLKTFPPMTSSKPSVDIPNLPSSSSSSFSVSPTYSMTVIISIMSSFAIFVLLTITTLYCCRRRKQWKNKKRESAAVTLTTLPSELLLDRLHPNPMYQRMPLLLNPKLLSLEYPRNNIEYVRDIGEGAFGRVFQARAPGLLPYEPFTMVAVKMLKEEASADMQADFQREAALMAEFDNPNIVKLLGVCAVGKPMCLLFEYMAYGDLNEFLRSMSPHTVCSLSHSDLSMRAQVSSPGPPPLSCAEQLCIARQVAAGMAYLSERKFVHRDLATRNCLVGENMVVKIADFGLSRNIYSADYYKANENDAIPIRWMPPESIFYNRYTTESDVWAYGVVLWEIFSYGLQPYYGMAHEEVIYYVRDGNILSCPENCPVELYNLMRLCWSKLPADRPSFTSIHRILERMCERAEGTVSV
T10 sequence (P30411 whole entry): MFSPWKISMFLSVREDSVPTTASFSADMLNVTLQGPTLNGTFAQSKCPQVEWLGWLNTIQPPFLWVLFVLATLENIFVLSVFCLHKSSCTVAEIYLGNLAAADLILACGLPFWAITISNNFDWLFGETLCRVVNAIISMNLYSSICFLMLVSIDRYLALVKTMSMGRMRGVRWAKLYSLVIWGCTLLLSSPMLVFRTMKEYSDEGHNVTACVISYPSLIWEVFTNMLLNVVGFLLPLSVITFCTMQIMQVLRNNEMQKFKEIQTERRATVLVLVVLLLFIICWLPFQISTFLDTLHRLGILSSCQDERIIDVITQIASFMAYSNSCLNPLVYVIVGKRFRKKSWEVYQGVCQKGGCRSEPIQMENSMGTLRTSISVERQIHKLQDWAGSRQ
T2 sequence (Q8IWQ3 whole entry): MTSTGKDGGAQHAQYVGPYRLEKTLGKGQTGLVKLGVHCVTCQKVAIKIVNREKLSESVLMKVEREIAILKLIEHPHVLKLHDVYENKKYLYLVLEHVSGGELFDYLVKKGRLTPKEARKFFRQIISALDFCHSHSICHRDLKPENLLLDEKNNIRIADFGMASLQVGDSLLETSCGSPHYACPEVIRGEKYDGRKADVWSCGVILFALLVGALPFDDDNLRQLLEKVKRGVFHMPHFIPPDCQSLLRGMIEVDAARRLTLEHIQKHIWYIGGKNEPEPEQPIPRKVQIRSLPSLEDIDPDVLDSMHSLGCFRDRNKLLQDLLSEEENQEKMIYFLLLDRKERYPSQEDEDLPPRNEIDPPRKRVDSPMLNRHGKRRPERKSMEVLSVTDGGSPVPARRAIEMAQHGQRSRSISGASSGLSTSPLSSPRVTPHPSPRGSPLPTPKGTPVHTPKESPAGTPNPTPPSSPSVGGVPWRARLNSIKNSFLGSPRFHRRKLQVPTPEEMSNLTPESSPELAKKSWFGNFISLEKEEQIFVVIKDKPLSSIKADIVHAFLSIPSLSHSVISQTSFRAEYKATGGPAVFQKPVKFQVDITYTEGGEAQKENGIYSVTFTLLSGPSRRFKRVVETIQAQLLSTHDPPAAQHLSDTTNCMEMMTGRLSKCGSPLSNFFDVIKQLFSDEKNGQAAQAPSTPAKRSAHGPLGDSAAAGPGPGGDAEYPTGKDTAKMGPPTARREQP
T3 sequence (P29371 whole entry): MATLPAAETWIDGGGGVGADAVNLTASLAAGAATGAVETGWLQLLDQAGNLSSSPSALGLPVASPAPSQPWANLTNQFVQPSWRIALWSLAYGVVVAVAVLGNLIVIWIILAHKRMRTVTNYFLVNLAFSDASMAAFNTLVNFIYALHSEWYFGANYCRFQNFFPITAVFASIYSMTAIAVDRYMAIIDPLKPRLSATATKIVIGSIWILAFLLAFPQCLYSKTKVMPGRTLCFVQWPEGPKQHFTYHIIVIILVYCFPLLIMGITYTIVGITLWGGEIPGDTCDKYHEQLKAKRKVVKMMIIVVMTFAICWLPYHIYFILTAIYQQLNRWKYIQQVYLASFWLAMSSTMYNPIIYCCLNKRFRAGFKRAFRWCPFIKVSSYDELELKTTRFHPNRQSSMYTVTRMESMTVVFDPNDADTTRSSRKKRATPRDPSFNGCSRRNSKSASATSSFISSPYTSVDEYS
T33 sequence (P08069 31-1367): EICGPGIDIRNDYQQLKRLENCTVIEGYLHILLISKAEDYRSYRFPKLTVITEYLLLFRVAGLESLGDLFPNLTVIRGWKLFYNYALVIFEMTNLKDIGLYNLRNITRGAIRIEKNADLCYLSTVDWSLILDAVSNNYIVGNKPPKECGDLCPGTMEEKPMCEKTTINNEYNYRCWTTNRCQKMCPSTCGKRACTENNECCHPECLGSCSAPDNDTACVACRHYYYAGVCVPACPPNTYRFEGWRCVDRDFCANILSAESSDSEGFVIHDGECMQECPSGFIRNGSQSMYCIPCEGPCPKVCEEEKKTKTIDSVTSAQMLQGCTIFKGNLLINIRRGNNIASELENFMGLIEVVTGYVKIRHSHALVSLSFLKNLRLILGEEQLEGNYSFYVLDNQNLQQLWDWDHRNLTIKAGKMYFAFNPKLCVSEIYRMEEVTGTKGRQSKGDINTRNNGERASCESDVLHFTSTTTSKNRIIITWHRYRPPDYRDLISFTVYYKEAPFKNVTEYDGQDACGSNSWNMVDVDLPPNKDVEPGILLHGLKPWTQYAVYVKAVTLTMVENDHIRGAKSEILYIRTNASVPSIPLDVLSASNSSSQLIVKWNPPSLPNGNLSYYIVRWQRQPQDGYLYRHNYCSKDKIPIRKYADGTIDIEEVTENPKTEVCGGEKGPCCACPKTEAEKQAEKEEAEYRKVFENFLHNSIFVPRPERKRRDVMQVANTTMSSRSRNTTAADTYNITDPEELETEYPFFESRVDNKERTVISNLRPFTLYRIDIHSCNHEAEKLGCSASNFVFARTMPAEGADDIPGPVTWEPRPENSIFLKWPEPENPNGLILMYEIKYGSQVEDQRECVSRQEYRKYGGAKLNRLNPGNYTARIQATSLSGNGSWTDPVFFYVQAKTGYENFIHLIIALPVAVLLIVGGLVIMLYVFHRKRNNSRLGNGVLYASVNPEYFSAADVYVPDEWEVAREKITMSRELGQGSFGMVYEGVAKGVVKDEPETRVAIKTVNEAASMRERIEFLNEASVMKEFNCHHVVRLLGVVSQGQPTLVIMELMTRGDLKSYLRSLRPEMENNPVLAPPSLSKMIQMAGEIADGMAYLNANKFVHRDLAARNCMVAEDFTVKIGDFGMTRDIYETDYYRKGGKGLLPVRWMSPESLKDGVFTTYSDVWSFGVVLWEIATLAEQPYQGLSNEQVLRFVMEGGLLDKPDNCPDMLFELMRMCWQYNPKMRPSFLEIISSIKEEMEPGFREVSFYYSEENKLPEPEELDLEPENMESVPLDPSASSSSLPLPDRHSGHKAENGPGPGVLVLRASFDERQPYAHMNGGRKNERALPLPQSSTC
T11 sequence (P54753 34-998): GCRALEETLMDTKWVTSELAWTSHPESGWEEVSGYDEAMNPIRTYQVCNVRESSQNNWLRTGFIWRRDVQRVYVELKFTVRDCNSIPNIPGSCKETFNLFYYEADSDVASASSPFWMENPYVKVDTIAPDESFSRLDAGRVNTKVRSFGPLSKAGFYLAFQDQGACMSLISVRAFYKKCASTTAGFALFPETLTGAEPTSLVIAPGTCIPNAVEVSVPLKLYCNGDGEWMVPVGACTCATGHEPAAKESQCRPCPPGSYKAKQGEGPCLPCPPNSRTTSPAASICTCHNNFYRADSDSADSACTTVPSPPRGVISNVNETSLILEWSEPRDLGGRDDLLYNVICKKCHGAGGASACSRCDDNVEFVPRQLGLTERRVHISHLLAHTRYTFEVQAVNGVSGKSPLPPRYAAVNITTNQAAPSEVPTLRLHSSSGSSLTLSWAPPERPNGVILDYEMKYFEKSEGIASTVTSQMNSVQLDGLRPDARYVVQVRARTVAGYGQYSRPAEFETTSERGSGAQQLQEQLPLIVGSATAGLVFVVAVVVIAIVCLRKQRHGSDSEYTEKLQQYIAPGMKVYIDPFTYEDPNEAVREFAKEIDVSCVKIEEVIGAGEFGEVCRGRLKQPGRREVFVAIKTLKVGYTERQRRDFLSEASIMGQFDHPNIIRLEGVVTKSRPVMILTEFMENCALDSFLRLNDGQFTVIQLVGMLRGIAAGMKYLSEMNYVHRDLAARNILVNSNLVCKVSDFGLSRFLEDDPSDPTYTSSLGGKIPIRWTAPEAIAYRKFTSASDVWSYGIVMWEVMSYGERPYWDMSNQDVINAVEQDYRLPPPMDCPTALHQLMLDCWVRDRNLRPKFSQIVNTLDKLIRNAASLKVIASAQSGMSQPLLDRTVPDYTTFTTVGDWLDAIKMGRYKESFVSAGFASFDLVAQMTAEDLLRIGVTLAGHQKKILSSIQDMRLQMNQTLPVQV
T35 sequence (P11309 whole entry): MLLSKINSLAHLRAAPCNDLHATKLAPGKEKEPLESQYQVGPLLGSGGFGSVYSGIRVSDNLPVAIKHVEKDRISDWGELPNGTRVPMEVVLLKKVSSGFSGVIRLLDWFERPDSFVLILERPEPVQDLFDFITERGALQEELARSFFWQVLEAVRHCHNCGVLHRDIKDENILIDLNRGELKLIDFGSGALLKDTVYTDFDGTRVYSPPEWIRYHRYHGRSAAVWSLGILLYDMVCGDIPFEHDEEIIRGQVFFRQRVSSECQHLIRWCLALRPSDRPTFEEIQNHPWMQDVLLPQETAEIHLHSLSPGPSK

With `Cn1cc(-c2ccc(-c3cncc(Cl)c3N3CCC4(CCNC4=O)CC3)cc2)cn1` [Compound 74, 8-(3-Chloro-5-(4-(1-methyl-1H-pyrazol-4-yl)phenyl)pyridin-4-yl)-2,8-diazaspiro[4.5]decan-1-one] the remaining activity at 1 µM (TAO3) was -24%, the “% Inhibition of Control Specific Binding” value (KV channel) was -13% and the remaining activity at 1 µM (BRSK2) was -4%. For the same molecule, the inhibition at 10 µM (NK3 (h)) was 4%, the remaining activity at 1 µM (IKKALPHA) was 4% and the remaining activity at 1 µM (ABL) was -5%. The remaining activity at 1 µM (PAR-1BALPHA) was 4%, the remaining activity at 1 µM (SNK) was -1% and the “% Inhibition of Control Specific Binding” value (α1 (non-selective)) was 8%. The remaining activity at 1 µM (JAK2) was 11%, the inhibition at 10 µM (5-HT3 (h)) was 9% and the inhibition at 10 µM (B2 (h)) was 0%. For the same molecule, the remaining activity at 1 µM (EPHB3) was -2%, the remaining activity at 1 µM (DAPK1) was 0% and the inhibition at 10 µM (Y1 (h)) was -7%. It also gave a remaining activity at 1 µM (CDK7/CYCLINH/MAT1) of 4%, a remaining activity at 1 µM (GRK7) of 7% and an inhibition at 10 µM (ETA (h)) of -9%. It also gave a remaining activity at 1 µM (PKA) of 24%, a remaining activity at 1 µM (ALK4) of -12% and a remaining activity at 1 µM (NLK) of 0%. The remaining activity at 1 µM (CHK1) was -17%, the remaining activity at 1 µM (MUSK) was 6% and the inhibition at 10 µM (GAL2 (h)) was 2%. The inhibition at 10 µM (5-HT1B) was -7%, the remaining activity at 1 µM (EEF-2K) was 15% and the remaining activity at 1 µM (PIM-2) was 13%. The remaining activity at 1 µM (SRPK1) was -4%, the remaining activity at 1 µM (HIPK2) was -12% and the remaining activity at 1 µM (ULK2) was -2%. The remaining activity at 1 µM (SAPK4) was -4%, the remaining activity at 1 µM (MST2) was 4% and the inhibition at 10 µM (M2 (h)) was 38%. The remaining activity at 1 µM (ZIPK) was 6%, the remaining activity at 1 µM (IGF-1R, ACTIVATED) was 11% and the inhibition at 10 µM (5-HT transporter (h)) was 70%. For the same molecule, the remaining activity at 1 µM (PIM-1) was -11%, the inhibition at 10 µM (5-HT5a (h)) was 1% and the “% Inhibition of Control Specific Binding” value (SKCa channel) was 3%. The remaining activity at 1 µM (CHK2) was 7%, the remaining activity at 1 µM (PRKAA1) was 2% and the remaining activity at 1 µM (FGFR2) was -6%. For the same molecule, the remaining activity at 1 µM (DCAMKL2) was 1% and the remaining activity at 1 µM (MRCKALPHA) was -4%.

From publication PMC4767141, “Discovery of Potent, Orally Bioavailable, Small-Molecule Inhibitors of WNT Signaling from a Cell-Based Pathway Screen” (Journal of Medicinal Chemistry, 2015)
